Where two headings read alike, the source gives them in different places. Positions of bridges follow the written chain, without caps; N, C: chain ends. Residues, ends and D or L forms follow the SMILES beside them.

Series [1] deals with T1, porcine Aminopeptidase N (APN) (Sus scrofa, UniProt P15145).
T1 construct: aminopeptidase from porcine kidney (pAPN, Sigma Aldrich); purchased Sigma Aldrich; host or cells: porcine kidney (microsomal preparation)
T1 sequence (P15145 1-963): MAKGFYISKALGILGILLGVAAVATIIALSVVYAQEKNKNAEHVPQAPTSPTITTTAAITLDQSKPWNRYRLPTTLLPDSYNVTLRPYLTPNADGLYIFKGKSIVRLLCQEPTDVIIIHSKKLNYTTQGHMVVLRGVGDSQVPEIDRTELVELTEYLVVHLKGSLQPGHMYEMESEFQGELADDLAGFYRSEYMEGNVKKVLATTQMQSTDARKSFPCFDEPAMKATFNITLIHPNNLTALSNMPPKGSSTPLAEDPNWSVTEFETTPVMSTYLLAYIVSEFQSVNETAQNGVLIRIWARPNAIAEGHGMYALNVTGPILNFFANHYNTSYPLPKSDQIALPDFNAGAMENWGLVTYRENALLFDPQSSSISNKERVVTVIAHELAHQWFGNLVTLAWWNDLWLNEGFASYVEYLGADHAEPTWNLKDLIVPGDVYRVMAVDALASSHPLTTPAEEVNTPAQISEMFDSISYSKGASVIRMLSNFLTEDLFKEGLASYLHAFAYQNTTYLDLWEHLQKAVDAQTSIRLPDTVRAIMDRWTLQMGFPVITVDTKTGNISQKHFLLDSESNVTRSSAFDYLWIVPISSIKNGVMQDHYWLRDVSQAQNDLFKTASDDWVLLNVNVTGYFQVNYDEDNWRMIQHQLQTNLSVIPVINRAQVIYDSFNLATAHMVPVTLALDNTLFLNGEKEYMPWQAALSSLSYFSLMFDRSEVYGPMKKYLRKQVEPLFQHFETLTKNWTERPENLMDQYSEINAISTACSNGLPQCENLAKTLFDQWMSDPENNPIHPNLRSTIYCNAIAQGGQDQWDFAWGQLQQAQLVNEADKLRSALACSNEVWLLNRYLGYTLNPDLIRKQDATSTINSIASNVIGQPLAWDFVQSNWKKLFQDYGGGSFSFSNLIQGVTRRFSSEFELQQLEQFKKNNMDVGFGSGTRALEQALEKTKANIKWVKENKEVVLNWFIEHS
The series can be described thus: porcine Aminopeptidase N inhibition, spectrophotometric. Type of series: biochemical. An excerpt: Studies to explore the impact of oxetane modification on the bioactivity of the derived cyclic peptides were undertaken. cCNGRC (26) is known to target Aminopeptidase N (APN), a transmembrane zinc-dependent metalloprotease involved in a variety of processes, including blood pressure regulation, cell migration, viral uptake, cell survival, and angiogenesis.[18],[19] Both oxetane modified derivative 22 and cCNGRC (26) were examined for their inhibitory activity towards porcine APN using a spectrophotometric assay (Table 2).[19]
4. In vitro inhibition assay of aminopeptidase N with oxetane modified peptide 22 and parent
Peptide 26 was synthesised following a procedure by Piras et al.[10] using HCTU as coupling reagent and NMM as base. Oxidation was performed by on-resin cyclization as described for the biotin labelled […]
For the determination of IC50 values of oxetane modified peptide 22 and parent peptide 26, a protocol published by Piras et al.[10] was followed using L-leucine-p-nitroanilide as substrate and microsomal aminopeptidase from porcine kidney (pAPN, Sigma Aldrich) (18 units/mg protein). IC50 values were calculated by following the formation of p-nitroaniline. Formation of p-nitroaniline was monitored by measurement of the UV absorption at 405 nm on a Hidex Sense plate reader. […]

Series [2] can be described thus: stability of oxetane to side-chain deprotection with TFA. Type of series: physicochemical. Particulars: 70% TFA/20% CH2Cl2/10% TIS, 2.5 h (global side-chain deprotection including Arg Pbf). An excerpt:
Macrocyclisations not involving head-to-tail ring closure have also been examined. Specifically, the formation of disulphide containing macrocycles through oxidative cyclisation of cysteine side chains has been explored (Scheme 5). Treatment of 2, whose synthesis was described in Scheme 3, with iodine provided the 17-membered macrocycle by way of trityl deprotection and disulphide bond formation. Further reaction with TFA in the presence of the cation scavenger triisopropylsilane (TIS) facilitated removal of all the side chain protecting groups providing 22 after reverse-phase HPLC purification. […] Smaller 11- and 14-membered macrocycles 23 and 24 were also conveniently produced in good yields using this methodology.
[formula] Scheme 5 Oxetane modified cyclic peptides by disulphide bond formation.^a^,^b^aReagents and conditions: (a) I2 (3.0 equiv.), MeOH, 1 h; (b) 70% TFA/20% CH2Cl2/10% TIS, 2.5 h. ^bBond formed in macrocyclisation indicated in red. ^cTFA step omitted; yield in parenthesis for the cyclisation of linear peptide with C?O rather than oxetane in backbone. ^dData taken from [ref. 14].
Fmoc-Cys(Trt)-Asn(Trt)-GOx-Arg(Pbf)-Cys(Trt)-OtBu (2)
Diethylamine (1.0 mL) was added to a solution of Fmoc-GOx-Arg(Pbf)-Cys(Trt)-OtBu (127) […]
and the reaction mixture was stirred at room temperature for 1 h. […]

For `N=C(N)NCCC[C@@H]1NC2(CNC(=O)[C@H](CC(N)=O)NC(=O)[C@@H](N)CSSC[C@@H](C(=O)O)NC1=O)COC2` [Compound 22, Cyclo(H-Cys-Asn-GOx-Arg-Cys-OH)], the IC50 in series [1] (read-out: IC50) was determined as 175 µM. In addition, the “oxetane stability to acid” value in series [2] was “survives the strongly acid conditions”.

With `N=C(N)NCCC[C@@H]1NC(=O)CNC(=O)[C@H](CC(N)=O)NC(=O)[C@@H](N)CSSC[C@@H](C(=O)O)NC1=O` [cCNGRC (26), reference compound] (H-CNGRC-OH; disulfide 1-5), the IC50 in series [1] came out at 212 µM.

Source of the values: paper PMC6385813, “Macrocyclisation of small peptides enabled by oxetane incorporation” (Chemical Science, 2019).
